Results: PubChem BioAssay (NCI)
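96-well plates; 48 h exposure; 5 concentrations. Endpoints by linear interpolation between flanking doses. Not reached: highest tested concentration assigned. TGI is the concentration that stops growth completely.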

Columns and labels:
Experiment in all cases: NCI anticancer screen, dose series, 48 h
786-0 renal = test system: 786-0 renal
MALME-3M melanoma = test system: MALME-3M melanoma
LXFL 529 NSCLC = test system: LXFL 529 NSCLC
HOP-18 NSCLC = test system: HOP-18 NSCLC
TK-10 renal = test system: TK-10 renal
SK-MEL-28 melanoma = test system: SK-MEL-28 melanoma
A498 renal = test system: A498 renal
RXF 393 renal = test system: RXF 393 renal
NCI-H23 lung = test system: NCI-H23 lung
UACC-257 melanoma = test system: UACC-257 melanoma
HOP-62 NSCLC = test system: HOP-62 NSCLC
SNB-19 CNS = test system: SNB-19 CNS
CAKI-1 renal = test system: CAKI-1 renal
COLO 205 colon = test system: COLO 205 colon
SNB-75 CNS = test system: SNB-75 CNS
EKVX NSCLC = test system: EKVX NSCLC
M14 melanoma = test system: M14 melanoma
SK-MEL-2 melanoma = test system: SK-MEL-2 melanoma
A549 NSCLC = test system: A549 NSCLC
SW-620 colon = test system: SW-620 colon
DLD-1 colon = test system: DLD-1 colon
HCT-116 colon = test system: HCT-116 colon
XF 498 CNS = test system: XF 498 CNS
SK-MEL-5 melanoma = test system: SK-MEL-5 melanoma
NCI-H460 lung = test system: NCI-H460 lung
NCI-H522 lung = test system: NCI-H522 lung
UO-31 renal = test system: UO-31 renal
DMS 273 small cell lung = test system: DMS 273 small cell lung
SF-539 CNS = test system: SF-539 CNS
MOLT-4 leukemia = test system: MOLT-4 leukemia
HCC-2998 colon = test system: HCC-2998 colon
SK-OV-3 ovarian = test system: SK-OV-3 ovarian
LOX IMVI melanoma = test system: LOX IMVI melanoma
SF-295 CNS = test system: SF-295 CNS
IGROV1 ovarian = test system: IGROV1 ovarian
ACHN renal = test system: ACHN renal
CCRF-CEM leukemia = test system: CCRF-CEM leukemia
KM20L2 colon = test system: KM20L2 colon
UACC-62 melanoma = test system: UACC-62 melanoma
DMS 114 small cell lung = test system: DMS 114 small cell lung
RPMI-8226 leukemia = test system: RPMI-8226 leukemia
HCT-15 colon = test system: HCT-15 colon
NCI-H226 lung = test system: NCI-H226 lung
OVCAR-8 ovarian = test system: OVCAR-8 ovarian
HOP-92 NSCLC = test system: HOP-92 NSCLC
SF-268 CNS = test system: SF-268 CNS
HL-60(TB) leukemia = test system: HL-60(TB) leukemia
KM12 colon = test system: KM12 colon
K-562 leukemia = test system: K-562 leukemia
SR leukemia = test system: SR leukemia
HT29 colon = test system: HT29 colon
SN12C renal = test system: SN12C renal
M19-MEL melanoma = test system: M19-MEL melanoma
OVCAR-4 ovarian = test system: OVCAR-4 ovarian
OVCAR-5 ovarian = test system: OVCAR-5 ovarian
U251 CNS = test system: U251 CNS
SNB-78 CNS = test system: SNB-78 CNS

Measured: TGI

CC(=O)c1cccc(NC(=O)C(=O)Nn2c(N)nnc2N)c1
> 100 µM: all assays above
